Laboratory results published in patent US20220395472A1 (Dermavant Sciences GmbH, priority 2021, published 2022).

Test system: adults with plaque psoriasis
Experiment: Long-term open-label extension study (PSOARING 3): Physician Global Assessment (PGA), treatment episodes, treatment success, remittive effect
Format: in vivo, human
Experimental: This extension study consisted of up to 40 weeks of treatment and a 4 week, safety follow up period.
At the completion of the Week 12 visit of the DB, pivotal Phase 3 study, eligibility of the subjects opting to enroll in this extension study was confirmed. Study visits during the treatment period for all subjects occurred every 4 weeks (±3 days). A phone call was performed at Week 2 (Day 15). Unscheduled visits may have occurred, as needed. Subjects who withdrew from this study before Week 40 returned to the study center for an Early Termination visit. The total duration of this extension study participation was 44 weeks. Subjects in this study were treated as follows based on their PGA score from the Week 12 visit in the DB, pivotal Phase 3 study (Study DMVT 505 3001 or Study DMVT 505 3002).
The PGA was used to assess the primary efficacy endpoint in this study. The PGA is a clinical tool for assessing the current state/severity of a subject's psoriasis at a given time point. It is a static, 5 point, morphological assessment of overall disease severity, as determined by the Investigator, using the clinical characteristics of erythema, scaling, and plaque thickness/elevation as guidelines; higher PGA scores represent more severe disease (0=clear, 1=almost clear, 2=mild, 3=moderate, and 4=severe). The BSA affected was not considered in scoring of the PGA. Variations of the PGA are frequently used in clinical studies because it is a simple assessment, similar to those used in clinical practice. The PGA was performed first, prior to the % BSA, PASI, and LTS assessments.
Time to event parameters, such as the time from treatment success to subsequent worsening (PGA≥2) or duration of treatment episode, were summarized by the Kaplan Meier product limit method using OC.

[1] = Baseline PGA = 3, Tapinarof (Pivotal) group
[2] = Baseline PGA = 3, Vehicle (Pivotal) group
[3] = Baseline PGA = 4, Tapinarof (Pivotal) group
[4] = Baseline PGA = 4, Vehicle (Pivotal) group

In the case of CC(C)c1c(O)cc(/C=C/c2ccccc2)cc1O [Tapinarof, 3,5-Dihydroxy-4-isopropyl-trans-stilbene], the “Total Duration of Treatment Success, Mean (SD)” value [1] is reported as 67.3 (54.20) days, the “Total Duration of Treatment Success, Median” value [1] is reported as 56.5 days and the “Average Duration of Episodes, Mean (SD)” value [2] is reported as 174.0 (94.06) days. The “Average Duration of Episodes, Median” value [2] was 195.0 days, the “Average Duration of Treatment Success, Mean (SD)” value [2] was 67.1 (57.99) days and the “Average Duration of Treatment Success, Median” value [2] was 51.0 days. The “Duration of 1st Episode, Mean (SD)” value [2] was 177.1 (92.70) days, the “Duration of 1st Episode, Median” value [2] was 195.5 days and the “Duration of 1st Success, Mean (SD)” value [2] was 70.3 (58.38) days. The “Duration of 1st Success, Median” value [2] was 56.0 days, the “Duration of 2nd Episode, Mean (SD)” value [2] was 56.4 (37.29) days and the “Duration of 2nd Episode, Median” value [2] was 55.5 days. The “Duration of 2nd Success, Mean (SD)” value [2] was 29.2 (18.23) days, the “Duration of 2nd Success, Median” value [2] was 28.0 days and the “Duration of 3rd Episode, Mean (SD)” value [2] was 55.2 (27.44) days. For the same molecule, the “Duration of 3rd Episode, Median” value [2] was 57.0 days, the “Duration of 3rd Success, Mean (SD)” value [2] was 28.0 (NE) days and the “Duration of 3rd Success, Median” value [2] was 28.0 days. The “Duration of 4th Episode, Mean (SD)” value [2] was 1.0 (NE) days, the “Duration of 4th Episode, Median” value [2] was 1.0 days and the “Duration of Last Episode, Mean (SD)” value [2] was 171.4 (97.39) days. The “Duration of Last Episode, Median” value [2] was 195.0 days, the “Duration of Last Success, Mean (SD)” value [2] was 63.8 (59.74) days and the “Duration of Last Success, Median” value [2] was 49.0 days. For the same molecule, the “Total Duration of Treatment Episodes, Mean (SD)” value [2] was 186.1 (87.86) days, the “Total Duration of Treatment Episodes, Median” value [2] was 197.5 days and the “Total Duration of Treatment Success, Mean (SD)” value [2] was 77.4 (58.26) days. The “Total Duration of Treatment Success, Median” value [2] was 81.0 days, the “Average Duration of Episodes, Mean (SD)” value (Baseline PGA = 4, Overall) was 187.5 (102.01) days and the “Average Duration of Episodes, Median” value (Baseline PGA = 4, Overall) was 225.0 days. For the same molecule, the “Average Duration of Treatment Success, Mean (SD)” value (Baseline PGA = 4, Overall) was 104.5 (56.36) days, the “Average Duration of Treatment Success, Median” value (Baseline PGA = 4, Overall) was 93.0 days and the “Duration of 1st Episode, Mean (SD)” value (Baseline PGA = 4, Overall) was 187.4 (102.04) days. For the same molecule, the “Duration of 1st Episode, Median” value (Baseline PGA = 4, Overall) was 225.0 days, the “Duration of 1st Success, Mean (SD)” value (Baseline PGA = 4, Overall) was 104.5 (56.36) days and the “Duration of 1st Success, Median” value (Baseline PGA = 4, Overall) was 93.0 days. The “Duration of 2nd Episode, Mean (SD)” value (Baseline PGA = 4, Overall) was 85.0 (NE) days, the “Duration of 2nd Episode, Median” value (Baseline PGA = 4, Overall) was 85.0 days and the “Duration of Last Episode, Mean (SD)” value (Baseline PGA = 4, Overall) was 187.5 (101.99) days. For the same molecule, the “Duration of Last Episode, Median” value (Baseline PGA = 4, Overall) was 225.0 days, the “Duration of Last Success, Mean (SD)” value (Baseline PGA = 4, Overall) was 104.5 (56.36) days and the “Duration of Last Success, Median” value (Baseline PGA = 4, Overall) was 93.0 days. The “Total Duration of Treatment Episodes, Mean (SD)” value (Baseline PGA = 4, Overall) was 191.1 (99.63) days, the “Total Duration of Treatment Episodes, Median” value (Baseline PGA = 4, Overall) was 225.0 days and the “Total Duration of Treatment Success, Mean (SD)” value (Baseline PGA = 4, Overall) was 104.5 (56.36) days. The “Total Duration of Treatment Success, Median” value (Baseline PGA = 4, Overall) was 93.0 days, the “Average Duration of Episodes, Mean (SD)” value [3] was 132.9 (100.39) days and the “Average Duration of Episodes, Median” value [3] was 113.0 days. The “Average Duration of Treatment Success, Mean (SD)” value [3] was 119.5 (79.90) days, the “Average Duration of Treatment Success, Median” value [3] was 119.5 days and the “Duration of 1st Episode, Mean (SD)” value [3] was 132.9 (100.39) days. The “Duration of 1st Episode, Median” value [3] was 113.0 days, the “Duration of 1st Success, Mean (SD)” value [3] was 119.5 (79.90) days and the “Duration of 1st Success, Median” value [3] was 119.5 days. For the same molecule, the “Duration of Last Episode, Mean (SD)” value [3] was 132.9 (100.39) days, the “Duration of Last Episode, Median” value [3] was 113.0 days and the “Duration of Last Success, Mean (SD)” value [3] was 119.5 (79.90) days. The “Duration of Last Success, Median” value [3] was 119.5 days, the “Total Duration of Treatment Episodes, Mean (SD)” value [3] was 132.9(100.39) days and the “Total Duration of Treatment Episodes, Median” value [3] was 113.0 days. For the same molecule, the “Total Duration of Treatment Success, Mean (SD)” value [3] was 119.5 (79.90) days, the “Total Duration of Treatment Success, Median” value [3] was 119.5 days and the “Average Duration of Episodes, Mean (SD)” value [4] was 211.3 (96.08) days. The “Average Duration of Episodes, Median” value [4] was 267.0 days, the “Average Duration of Treatment Success, Mean (SD)” value [4] was 89.5 (47.38) days and the “Average Duration of Treatment Success, Median” value [4] was 89.5 days. For the same molecule, the “Duration of 1st Episode, Mean (SD)” value [4] was 211.3 (96.13) days, the “Duration of 1st Episode, Median” value [4] was 267.0 days and the “Duration of 1st Success, Mean (SD)” value [4] was 89.5 (47.38) days. For the same molecule, the “Duration of 1st Success, Median” value [4] was 89.5 days, the “Duration of 2nd Episode, Mean (SD)” value [4] was 85.0 (NE) days and the “Duration of 2nd Episode, Median” value [4] was 85.0 days. For the same molecule, the “Duration of Last Episode, Mean (SD)” value [4] was 211.4 (96.04) days, the “Duration of Last Episode, Median” value [4] was 267.0 days and the “Duration of Last Success, Mean (SD)” value [4] was 89.5 (47.38) days. The “Duration of Last Success, Median” value [4] was 89.5 days, the “Total Duration of Treatment Episodes, Mean (SD)” value [4] was 216.6 (90.82) days and the “Total Duration of Treatment Episodes, Median” value [4] was 267.0 days. The “Total Duration of Treatment Success, Mean (SD)” value [4] was 89.5 (47.38) days, the “Total Duration of Treatment Success, Median” value [4] was 89.5 days and the “PGA 0 - Clear” value (Baseline, Overall) was 78 (10.3) n (%). For the same molecule, the “PGA 1 - Almost Clear” value (Baseline, Overall) was 161 (21.2) n (%) and the “PGA 2 - Mild” value (Baseline, Overall) was 248 (32.7) n (%).
